*: point of attachment. Mca = COc1ccc2c(CC(=O)*)cc(=O)oc2c1
Tested on: exiguolysin
Assay: Km determination of the fluorogenic substrate (Michaelis-Menten)
Type: biochemical, Exiguobacterium oxidotolerans
Details: 25 mM Tris, 2.5 mM CaCl2, pH 7.0; substrate 0-200 µM; exiguolysin 5 units/well
Protocol: The inhibition of protease activity was screened using a 20 × 20 library of N-alpha dipeptide mercaptoamide inhibitors as previously described by Cathcart et al., and the half-maximal inhibitory constant (Ki) values were determined. In order to determine Michaelis–Menten constant, Km, of the fluorogenic substrate, exiguolysin (previously purified by HIC, final concentration 5 units/well) was added to wells of a 96-well black microtitre plate (Nunc); the volume was adjusted to 75 µL in assay buffer (25 mM Tris, 2.5 mM CaCl2, pH 7.0), and fluorogenic substrate (25 µL) was added at concentrations of 0, 1, 10, 25, 50, 100 and 200 µM. Time-dependent hydrolysis of the fluorogenic substrate was measured (excitation/emission […] nm) every 30 s for 30 min. The Km is determined using the Michealis–Menten equation, by plotting the rate of substrate hydrolysis against substrate concentration.

Mca-Lys-Pro-Leu-Gly-Leu-Dap-(Dnp)-Ala-Arg-NH2 (Mca-KPLGL-{Dap(Dnp)-Ala-Arg-NH2}) [fluorogenic substrate, fluorogenic matrix metalloprotease (MMP) substrate]
Km: 14.2 µM
